From patent US4714705A, “4-nitrogen substituted isoquinolinol compounds having cardiotonic, phosphodiesterase fraction III inhibiting properties and/or renal vasodilating properties” (Ortho Pharmaceutical Corporation, priority 1986, dated 1987)
Like-named read-outs stand apart in the source and are kept apart here.

Experiments:
adult mongrel dogs [1] = assay: Renal vasodilating activity in anesthetized dogs; assay type: in vivo, dog (adult mongrel); conditions: Canis lupus familiaris; for change in vivo at 6.2 mg/kg: 6.2 mg/kg intravenous; for change in vivo at 1.2 mg/kg: 1.2 mg/kg intravenous; for change in vivo at 0.04 mg/kg: 0.04 mg/kg intravenous; for change in vivo at 0.14 mg/kg: 0.14 mg/kg intravenous; for change in vivo at 0.34 mg/kg: 0.34 mg/kg intravenous; for change in vivo at 0.2 mg/kg: 0.2 mg/kg intravenous
Protocol: Goldberg et al, J. Pharmacol. Exp. Ther., 163, 188 (1968), performed an investigation of the structural requirements for dopamine-like renal vasodilation of phenethylamines and apmorphine. The following procedure is a variation of the assay described in that report.
Adult mongrel dogs were anesthetized and surgically prepared for electromagnetic measurement of renal artery blood flow. A carotid artery was cannulated for measuring arterial blood pressure, and drugs were administered intravenously or intraarterially (via the renal artery). Heart rate was monitored with a cardiotachometer. Renal vascular resistance was calculated as the ratio of mean arterial blood pressure/renal artery blood flow. Dopamine was infused intravenously at […] for ten minutes (at an infusion rate of about 1 ml/min) to determine responsiveness of each dog to renal dopamine receptor stimulation. Cumulative dose-response data were obtained by infusing a compound of this invention at progressively increasing (usually three-fold) infusion rates, esch dose being infused for five minutes. The maximum percent increase from pre-drug control in renal artery blood flow (or a decrease in renal vascular resistance) was determined for each infusion dose.
RBF values are percent increase in renal blood flow. RVR values are percent increase in renal vascular resistance. MABP and HR are increases in mean arterial blood pressure and heart rate, respectively, relative to controls.

adult mongrel dogs [2] = assay: Acute in vivo cardiotonic activity in anesthetized dogs; design: species or system dog (adult mongrel); conditions: Canis lupus familiaris, relative to controls; for change in vivo at 0.12 mg/kg: 0.12 mg/kg intravenous; for change in vivo at 0.875 mg/kg: 0.875 mg/kg intravenous; for change in vivo at 1.875 mg/kg: 1.875 mg/kg intravenous; for change in vivo at 0.125 mg/kg: 0.125 mg/kg intravenous; for change in vivo at 0.375 mg/kg: 0.375 mg/kg intravenous; for change in vivo at 0.15 mg/kg: 0.150 mg/kg intravenous
Protocol: The acute in vivo cardiotonic activity of compounds prepared according to the present invention was determined according to a modification of the procedure described by Alousi et al., Circ. Res., 45, 666 (1979).
In particular, adult mongrel dogs were anesthetized with sodium pentobarbital and were artificially respired. Arterial pressure was monitored via a femoral artery, and the pulse pressure was used to trigger a cardiotachometer for heart rate. Left ventricular pressure was determined with a Millar catheter, and dP/dt (the change in ventricular pressure with time) was derived. Cardiac output was determined by measuring ascending aortic blood flow with an electromagnetic flow probe, and myocardial contractile force was measured with a Walton Brodie strain gauge sutured to the right ventricle. Lead II EKG was also recorded.
A standard dose (10 μ/kg/min) of dopamine was administered to assess myocardial responsiveness.
Compounds of the invention were administered by intravenous infusion or bolus oral administration, and the effects on cardiovascular parameters were determined.
Dose related effects on the test compound on blood pressure (BP), heart rate (HR), maximum change in left ventricular pressure with time (dP/dt max), % change in cardiac force (CF) and the increase in mean arterial blood pressure relative to controls (MABP) were compared to pretreatment control values, expressed as a % change and rated for activity. Statistical evaluations were made using the appropriate parametric test against controls.

[3] = relative to controls, read-out: HR, percent change in heart rate
[4] = relative to controls, read-out: MABP, mean arterial blood pressure
[5] = relative to controls, read-out: RBF, renal blood flow
[6] = relative to controls, read-out: RVR, renal vascular resistance
[7] = read-out: CF, percent change in cardiac force
[8] = read-out: HR, percent change in heart rate
[9] = read-out: MABP, mean arterial blood pressure
[10] = read-out: dP/dt, maximum change left ventricular pressure with time

CCOc1cc2c([N+](=O)[O-])c(O)nc(C)c2cc1OC [BAN]
change in vivo at 6.2 mg/kg (adult mongrel dogs [1]; [3]): -5% | change in vivo at 6.2 mg/kg (adult mongrel dogs [1]; [4]): 1% | change in vivo at 6.2 mg/kg (adult mongrel dogs [1]; [5]): 61% | change in vivo at 6.2 mg/kg (adult mongrel dogs [1]; [6]): -37% | change in vivo at 0.12 mg/kg (adult mongrel dogs [2]; [7]): 49% | change in vivo at 0.12 mg/kg (adult mongrel dogs [2]; [8]): 4% | change in vivo at 0.12 mg/kg (adult mongrel dogs [2]; [9]): -18% | change in vivo at 0.12 mg/kg (adult mongrel dogs [2]; [10]): 12%

COc1cc2c([N+](=O)[O-])c(O)nc(C)c2c(OC)c1OC [BE]
change in vivo at 1.2 mg/kg (adult mongrel dogs [1]; [3]): 32% | change in vivo at 1.2 mg/kg (adult mongrel dogs [1]; [4]): -26% | change in vivo at 1.2 mg/kg (adult mongrel dogs [1]; [5]): 60% | change in vivo at 1.2 mg/kg (adult mongrel dogs [1]; [6]): -52% | change in vivo at 0.875 mg/kg (adult mongrel dogs [2]; [7]): 84% | change in vivo at 0.875 mg/kg (adult mongrel dogs [2]; [8]): 18% | change in vivo at 0.875 mg/kg (adult mongrel dogs [2]; [9]): -22% | change in vivo at 0.875 mg/kg (adult mongrel dogs [2]; [10]): 38%

COc1cc2cnc(O)c(NC(C)=O)c2cc1OC [BF]
change in vivo at 6.2 mg/kg (adult mongrel dogs [1]; [3]): -8% | change in vivo at 6.2 mg/kg (adult mongrel dogs [1]; [4]): 14% | change in vivo at 6.2 mg/kg (adult mongrel dogs [1]; [5]): 30% | change in vivo at 6.2 mg/kg (adult mongrel dogs [1]; [6]): -12% | change in vivo at 1.875 mg/kg (adult mongrel dogs [2]; [7]): 23% | change in vivo at 1.875 mg/kg (adult mongrel dogs [2]; [8]): 7% | change in vivo at 1.875 mg/kg (adult mongrel dogs [2]; [9]): 1% | change in vivo at 1.875 mg/kg (adult mongrel dogs [2]; [10]): 38%

CCOc1cc2c(C)nc(O)c([N+](=O)[O-])c2cc1OC [BH]
change in vivo at 0.04 mg/kg (adult mongrel dogs [1]; [3]): 19% | change in vivo at 0.04 mg/kg (adult mongrel dogs [1]; [4]): -10% | change in vivo at 0.04 mg/kg (adult mongrel dogs [1]; [5]): 25% | change in vivo at 0.04 mg/kg (adult mongrel dogs [1]; [6]): -28% | change in vivo at 0.125 mg/kg (adult mongrel dogs [2]; [7]): 134% | change in vivo at 0.125 mg/kg (adult mongrel dogs [2]; [8]): 18% | change in vivo at 0.125 mg/kg (adult mongrel dogs [2]; [9]): -24% | change in vivo at 0.125 mg/kg (adult mongrel dogs [2]; [10]): 74%

CCCCOc1cc2c(C)nc(O)c([N+](=O)[O-])c2cc1OC [BI]
change in vivo at 0.14 mg/kg (adult mongrel dogs [1]; [4]): -8% | change in vivo at 0.14 mg/kg (adult mongrel dogs [1]; [5]): 16% | change in vivo at 0.14 mg/kg (adult mongrel dogs [1]; [6]): -18% | change in vivo at 0.375 mg/kg (adult mongrel dogs [2]; [7]): 118% | change in vivo at 0.375 mg/kg (adult mongrel dogs [2]; [8]): 30% | change in vivo at 0.375 mg/kg (adult mongrel dogs [2]; [9]): -35% | change in vivo at 0.375 mg/kg (adult mongrel dogs [2]; [10]): 8%

CCOc1cc2c(C)nc(O)c(NC(C)=O)c2cc1OC [BJ]
change in vivo at 6.34 mg/kg (adult mongrel dogs [1]; iv, read-out: HR, percent change in heart rate): -16% | change in vivo at 6.34 mg/kg (adult mongrel dogs [1]; 6.34 mg/kg intravenous, relative to controls, read-out: MABP, mean arterial blood pressure): -4% | change in vivo at 6.34 mg/kg (adult mongrel dogs [1]; 6.34 mg/kg intravenous, relative to controls, read-out: RBF, renal blood flow): 18% | change in vivo at 6.34 mg/kg (adult mongrel dogs [1]; 6.34 mg/kg intravenous, relative to controls, read-out: RVR, renal vascular resistance): -19% | change in vivo at 1.875 mg/kg (adult mongrel dogs [2]; [7]): 21% | change in vivo at 1.875 mg/kg (adult mongrel dogs [2]; [8]): -3% | change in vivo at 1.875 mg/kg (adult mongrel dogs [2]; [9]): 1% | change in vivo at 1.875 mg/kg (adult mongrel dogs [2]; [10]): 8%

CCOc1cc2c(C)nc(O)c([N+](=O)[O-])c2cc1OCC [BK]
change in vivo at 0.34 mg/kg (adult mongrel dogs [1]; [3]): 3% | change in vivo at 0.34 mg/kg (adult mongrel dogs [1]; [4]): -21% | change in vivo at 0.34 mg/kg (adult mongrel dogs [1]; [5]): 14% | change in vivo at 0.34 mg/kg (adult mongrel dogs [1]; [6]): -30% | change in vivo at 0.375 mg/kg (adult mongrel dogs [2]; [7]): 62% | change in vivo at 0.375 mg/kg (adult mongrel dogs [2]; [8]): 11% | change in vivo at 0.375 mg/kg (adult mongrel dogs [2]; [9]): -2% | change in vivo at 0.375 mg/kg (adult mongrel dogs [2]; [10]): 22%

COc1cc2c(-c3ccccc3)nc(O)c([N+](=O)[O-])c2cc1OC [BL]
change in vivo at 0.34 mg/kg (adult mongrel dogs [1]; [3]): 29% | change in vivo at 0.34 mg/kg (adult mongrel dogs [1]; [4]): 6% | change in vivo at 0.34 mg/kg (adult mongrel dogs [1]; [5]): 13% | change in vivo at 0.34 mg/kg (adult mongrel dogs [1]; [6]): -5% | change in vivo at 1.875 mg/kg (adult mongrel dogs [2]; [7]): 10% | change in vivo at 1.875 mg/kg (adult mongrel dogs [2]; [8]): -29% | change in vivo at 1.875 mg/kg (adult mongrel dogs [2]; [9]): -15% | change in vivo at 1.875 mg/kg (adult mongrel dogs [2]; [10]): 11%

COc1cc2c(C)nc(O)c([N+](=O)[O-])c2cc1OC [Compound BA, 3-Hydroxy-6,7-dimethoxy-1-methyl-4-nitroisoquinoline]
change in vivo at 0.2 mg/kg (adult mongrel dogs [1]; [3]): 83% | change in vivo at 0.2 mg/kg (adult mongrel dogs [1]; [4]): -12% | change in vivo at 0.2 mg/kg (adult mongrel dogs [1]; [5]): 14% | change in vivo at 0.2 mg/kg (adult mongrel dogs [1]; [6]): -23% | change in vivo at 0.15 mg/kg (adult mongrel dogs [2]; [7]): 92% | change in vivo at 0.15 mg/kg (adult mongrel dogs [2]; [8]): 8% | change in vivo at 0.15 mg/kg (adult mongrel dogs [2]; [9]): -19% | change in vivo at 0.15 mg/kg (adult mongrel dogs [2]; [10]): 63%

COc1cc2c(C)nc(O)c(N)c2cc1OC [Compound BBQ, 4-Amino-3-hydroxy-6,7-dimethoxy-1-methylisoquinoline]
change in vivo at 1.2 mg/kg (adult mongrel dogs [1]; [3]): 4% | change in vivo at 1.2 mg/kg (adult mongrel dogs [1]; [4]): 6% | change in vivo at 1.2 mg/kg (adult mongrel dogs [1]; [5]): 22% | change in vivo at 1.2 mg/kg (adult mongrel dogs [1]; [6]): -12% | change in vivo at 0.875 mg/kg (adult mongrel dogs [2]; [7]): 99% | change in vivo at 0.875 mg/kg (adult mongrel dogs [2]; [8]): 7% | change in vivo at 0.875 mg/kg (adult mongrel dogs [2]; [9]): -5% | change in vivo at 0.875 mg/kg (adult mongrel dogs [2]; [10]): 106%

Cc1nc(O)c([N+](=O)[O-])c2cc3c(cc12)OCO3 [Compound BB]
change in vivo at 6.2 mg/kg (adult mongrel dogs [1]; [3]): 90% | change in vivo at 6.2 mg/kg (adult mongrel dogs [1]; [4]): -16% | change in vivo at 6.2 mg/kg (adult mongrel dogs [1]; [5]): 19% | change in vivo at 6.2 mg/kg (adult mongrel dogs [1]; [6]): -30% | change in vivo at 1.875 mg/kg (adult mongrel dogs [2]; [7]): 28% | change in vivo at 1.875 mg/kg (adult mongrel dogs [2]; [8]): -17% | change in vivo at 1.875 mg/kg (adult mongrel dogs [2]; [9]): -8% | change in vivo at 1.875 mg/kg (adult mongrel dogs [2]; [10]): -1%

O=[N+]([O-])c1c(O)ncc2cc3c(cc12)OCO3 [Compound BC]
change in vivo at 1.2 mg/kg (adult mongrel dogs [1]; [3]): -6% | change in vivo at 1.2 mg/kg (adult mongrel dogs [1]; [4]): -14% | change in vivo at 1.2 mg/kg (adult mongrel dogs [1]; [5]): 20% | change in vivo at 1.2 mg/kg (adult mongrel dogs [1]; [6]): -28% | change in vivo at 1.875 mg/kg (adult mongrel dogs [2]; [7]): 16% | change in vivo at 1.875 mg/kg (adult mongrel dogs [2]; [8]): 0% | change in vivo at 1.875 mg/kg (adult mongrel dogs [2]; [9]): -7.5% | change in vivo at 1.875 mg/kg (adult mongrel dogs [2]; [10]): 22%
